# How the values were obtained:
# subjects with migraine [1] = assay: Clinical Study Trials #1 and #2: severity of phonophobia associated with migraine headaches; type: in vivo, human; settings: for Severity of Phonophobia Associated With Migraine Headaches, Baseline / Severity of Phonophobia Associated With Migraine Headaches, Double-Blind / Severity of Phonophobia Associated With Migraine Headaches, Difference: scale 0 to 3; for Severity of Phonophobia Associated With Migraine Headaches, Baseline / Severity of Phonophobia Associated With Migraine Headaches, Double-Blind: triptan rescue therapy; for Severity of Phonophobia Associated With Migraine Headaches, Double-Blind: Double-Blind Phase; for Severity of Phonophobia Associated With Migraine Headaches, Difference: Double-Blind minus Baseline
# Description: (§1) The primary objective of these studies was to evaluate the safety and efficacy of three doses of topiramate (50, 100, and 200 mg/day) versus placebo in the prophylaxis of migraine based on the change in the monthly (28 day) migraine period rate from the Prospective Baselin,e Period to the Double-Blind Phase. The secondary objectives for the studies were to assess dose response relationship, and to evaluate the effect of prophylactic treatment with topiramate (50, 100, and 200 mg/day) versus placebo on Health-Related Quality of Life (HRQL).
# (§2) The studies were randomized, double-blind, placebo-controlled, parallel-group, multicenter studies. Male and female subjects were randomized equally to the four treatment groups.
# (§3) While the IHS criteria was used to establish the diagnosis at study entry, the evaluation of efficacy was based on migraine periods. A migraine period was defined as the length of time between the onset and cessation of painful migraine symptoms. This period could last up to, but no longer than, 24 hours. If the painful symptoms persisted more than 24 hours after their initial onset, this was considered to be a new, distinct migraine period. If symptoms recurred within 24 hours of the initial onset, this was considered part of the same, initial period.
# (§4) Subjects who completed the Baseline Phase and met the entry criteria were randomized to one of four treatment groups: 50 mg/day topiramate, 100 mg/day topiramate, 200 mg/day topiramate or placebo. The Double-Blind Phase had two periods: Titration and Maintenance, which are described in more detail below.
# (§5) The Titration Period immediately followed the Baseline Phase and extended for eight weeks (56 days). During this period, subjects randomized to topiramate were started at a dose of 25 mg/day and the daily dose was increased by 25 mg weekly until they reach their assigned dose (or maximum tolerated dose, whichever is less). From the third week of Titration until the end of the Maintenance Period, a maximum of two dose level reductions were permitted for unacceptable tolerability problems. If the subject was still in the Titration Period after a dose reduction, rechallenge may have occurred in an attempt to achieve the subject's assigned dose, and, if unsuccessful, the dose may have been reduced again to the original reduced dose. Subjects who had their study medication dose decreased twice, and were still experiencing unacceptable tolerability problems that warranted additional dose reductions, exited the study. Clinic visits occurred on Day 29 (Visit 3) and Day 57 (Visit 4/End of Titration).
# (§6) During this 18-week period, the subjects remained on the dose of study medication reached at the end of the Titration Period (the assigned dose or the maximum tolerated dose). If the subject experienced unacceptable tolerability problems, the dose was reduced, only one dose reduction was permitted in the maintenance. No rechallenge was permitted during the Maintenance Period, so that subject continued on the reduced dose for the remainder of the period. Subjects who already had their study medication dose decreased by two levels, and were still experiencing unacceptable tolerability problems that warranted additional dose reductions exited the study. Clinic visits occurred on Day 85 (Visit 5), Day 113 (Visit 6), Day 141 (Visit 7) and Day 183 (Visit 8/ Double-Blind Final Visit or Early Withdrawal).
# (§7) Subjects were randomized to one of four treatment groups: a) placebo, b) 50 mg/day topiramate, c) 100 mg/day topiramate, or d) 200 mg/day topiramate. All subjects received study medication in a b.i.d. dosing regimen except during the first week of Titration, during which they took single evening doses.
# (§8) In keeping with good pain management practices, subjects enrolled in these studies were permitted to take acute abortive/rescue medication as indicated for the treatment of pain during migraine/headache attacks. […]
# subjects with migraine [2] = assay: Clinical Study Trials #1 and #2: duration of migraine headaches, topiramate with triptan rescue therapy; type: in vivo, human; settings: for Duration of Migraine Headaches, Baseline / Duration of Migraine Headaches, Double-Blind: triptan rescue therapy; for Duration of Migraine Headaches, Double-Blind: Double-Blind Phase; for Duration of Migraine Headaches, Difference: Double-Blind minus Baseline
# Description: as §1, §2, §3, §4, §5, §6, §7, §8
# kindled epilepsy = settings: animal model of kindled epilepsy; cited from earlier work
# [3] = tested on: refractory migraine (migraine without aura); assay: Case Study 2: refractory migraine without aura; type: in vivo, human; settings: 75 mg/day topiramate, 20 mg/day CORGARD and 20 mg/day CELEXA
# Description: The patient was a person with a lifelong history of refractory migraine (migraine without aura), averaging 8 migraines per month. […] The patient was started on topiramate at 25 mg/day, with dosage increasing to 75 mg/day. Simultaneously, the beta-blocker, CORGARD dosage was decreased to 20 mg/day, with CELEXA at 20 mg/day also continued.
# seizures = settings: several rodent models of epilepsy; cited from earlier work
# subjects with migraine [4] = assay: Clinical Study Trials #1 and #2: severity of photophobia associated with migraine headaches; type: in vivo, human; settings: for Severity of Photophobia Associated Migraine Headaches, Baseline / Severity of Photophobia Associated Migraine Headaches, Double-Blind / Severity of Photophobia Associated Migraine Headaches, Difference: scale 0 to 3; for Severity of Photophobia Associated Migraine Headaches, Baseline / Severity of Photophobia Associated Migraine Headaches, Double-Blind: triptan rescue therapy; for Severity of Photophobia Associated Migraine Headaches, Double-Blind: Double-Blind Phase; for Severity of Photophobia Associated Migraine Headaches, Difference: Double-Blind minus Baseline
# Description: as §1, §2, §3, §4, §5, §6, §7, §8
# [5] = tested on: severe refractory migraine with and without aura; assay: Case Study 3: severe refractory migraine with and without aura; type: in vivo, human
# Description: The patient was a person with a twenty-year history of severe refractory migraine with and without aura. […] The patient was started on topiramate at 50 mg/day increasing to 100 mg in the morning and 100 mg in the evening, in combination with INDERAL at 160 mg/day. […] After about 6 months, the patient was prescribed EFFEXOR XR (vanlafaxine HCl) at 37 mg/day, an increased topiramate dose of 125 mg in the morning and 150 mg in the evening, and 160 mg/day INDERAL.
# [6] = tested on: simple and complex partial seizures and secondarily generalized seizures; settings: clinical trials of human epilepsy; cited from earlier work
# [7] = patients taking 100 mg topiramate in Study 1
# [8] = topiramate with triptan rescue medication vs triptan rescue alone, measurable at 50 mg and 100 mg
smiles,measurement,setting,value
"CC1(C)O[C@@H]2[C@@H](CO[C@@]3(COS(N)(=O)=O)OC(C)(C)O[C@@H]23)O1 [topiramate, 2,3:4,5-bis-O-(1-methylethylidene)-β-D-fructopyranose sulfamate]","Severity of Phonophobia Associated With Migraine Headaches, Baseline",subjects with migraine [1]; TPM 50 mg,1.65
same,"Severity of Phonophobia Associated With Migraine Headaches, Double-Blind",subjects with migraine [1]; TPM 50 mg,1.59
same,"Severity of Phonophobia Associated With Migraine Headaches, Difference",subjects with migraine [1]; TPM 50 mg,−0.06
same,"Severity of Phonophobia Associated With Migraine Headaches, Baseline",subjects with migraine [1]; TPM 100 mg,1.72
same,"Severity of Phonophobia Associated With Migraine Headaches, Double-Blind",subjects with migraine [1]; TPM 100 mg,1.58
same,"Severity of Phonophobia Associated With Migraine Headaches, Difference",subjects with migraine [1]; TPM 100 mg,−0.15
same,"Severity of Phonophobia Associated With Migraine Headaches, Baseline",subjects with migraine [1]; TPM 200 mg,1.50
same,"Severity of Phonophobia Associated With Migraine Headaches, Double-Blind",subjects with migraine [1]; TPM 200 mg,1.47
same,"Severity of Phonophobia Associated With Migraine Headaches, Difference",subjects with migraine [1]; TPM 200 mg,−0.03
same,"Statistical significance of effect, text under Table 5 (in words)",subjects with migraine [1]; [7],Statistically significant differences in the severity of nausea
same,Effect on severity of associated phonophobia (in words),subjects with migraine [1]; [8],decreased the severity of associated phonophobia
same,Effect on duration of headaches (in words),subjects with migraine [2]; 200 mg topiramate treatment,duration of headaches increased
same,"Duration of Migraine Headaches, Baseline",subjects with migraine [2]; TPM 50 mg,12.77 h
same,"Duration of Migraine Headaches, Double-Blind",subjects with migraine [2]; TPM 50 mg,11.60 h
same,"Duration of Migraine Headaches, Difference",subjects with migraine [2]; TPM 50 mg,-1.17 h
same,"Duration of Migraine Headaches, Baseline",subjects with migraine [2]; TPM 100 mg,14.75 h
same,"Duration of Migraine Headaches, Double-Blind",subjects with migraine [2]; TPM 100 mg,13.17 h
same,"Duration of Migraine Headaches, Difference",subjects with migraine [2]; TPM 100 mg,-1.59 h
same,"Duration of Migraine Headaches, Baseline",subjects with migraine [2]; TPM 200 mg,10.84 h
same,"Duration of Migraine Headaches, Double-Blind",subjects with migraine [2]; TPM 200 mg,12.05 h
same,"Duration of Migraine Headaches, Difference",subjects with migraine [2]; TPM 200 mg,+1.21 hours
same,Effect on duration of a migraine headache (in words),"subjects with migraine [2]; topiramate with triptan rescue medications, groups taking 50 mg and 100 mg",numerically measurable decrease in the duration of a migraine headache
same,Block of seizures,kindled epilepsy,effectively block seizures
same,Headache frequency,[3],significant decrease in headache frequency
same,Headache-free time,[3],no headache for up to four weeks
same,Block of seizures,seizures,effectively block seizures
same,"Severity of Photophobia Associated Migraine Headaches, Baseline",subjects with migraine [4]; TPM 50 mg,1.83
same,"Severity of Photophobia Associated Migraine Headaches, Double-Blind",subjects with migraine [4]; TPM 50 mg,1.68
same,"Severity of Photophobia Associated Migraine Headaches, Difference",subjects with migraine [4]; TPM 50 mg,−0.14
same,"Severity of Photophobia Associated Migraine Headaches, Baseline",subjects with migraine [4]; TPM 100 mg,1.77
same,"Severity of Photophobia Associated Migraine Headaches, Double-Blind",subjects with migraine [4]; TPM 100 mg,1.58
same,"Severity of Photophobia Associated Migraine Headaches, Difference",subjects with migraine [4]; TPM 100 mg,−0.19
same,"Severity of Photophobia Associated Migraine Headaches, Baseline",subjects with migraine [4]; TPM 200 mg,1.62
same,"Severity of Photophobia Associated Migraine Headaches, Double-Blind",subjects with migraine [4]; TPM 200 mg,1.57
same,"Severity of Photophobia Associated Migraine Headaches, Difference",subjects with migraine [4]; TPM 200 mg,−0.05
same,"Statistical significance of effect, text under Table 4 (in words)",subjects with migraine [4]; [7],Statistically significant differences in the severity of nausea
same,Effect on severity of associated photophobia (in words),subjects with migraine [4]; [8],decreased the severity of associated photophobia
same,Response of severe refractory migraine,[5]; topiramate 100 mg in the morning and 100 mg in the evening with INDERAL at 160 mg/day,"initial positive response, but the headaches broke through"
same,Response of severe refractory migraine,"[5]; topiramate 125 mg morning and 150 mg evening, EFFEXOR XR 37 mg/day, INDERAL 160 mg/day",Modest but sustained improvement
same,Efficacy in treating simple and complex partial seizures and secondarily generalized seizures,[6],effective as adjunctive therapy or as monotherapy

# From US20030225002A1, “Co-therapy for the treatment of migraine comprising anticonvulsant derivatives and anti-migraine agents” (priority 2002, published 2003)
